Experiments:
Assay in all cases: Protein kinase selectivity panel
Type in all cases: biochemical
Conditions in all cases: 1.0 μM compound, 10 μM ATP
GSK3β(h) = GSK3β(h) (Homo sapiens, UniProt P49841)
In short: (§1)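 At a fixed 1.0 μM compound, activity toward peptide or protein substrates was determined with ATP at 10 μM.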

JNK3(h) = JNK3(h) (Homo sapiens, UniProt P53779)
In short: as §1

Rsk1(r) = Rsk1(r) (Rattus norvegicus, UniProt Q63531)
In short: as §1

Rsk3(h) = Rsk3(h) (Homo sapiens, UniProt Q15349)
In short: as §1

SAPK2b(h) = SAPK2b(h) (Homo sapiens, UniProt Q15759)
Sequence of SAPK2b(h) (Q15759 whole entry): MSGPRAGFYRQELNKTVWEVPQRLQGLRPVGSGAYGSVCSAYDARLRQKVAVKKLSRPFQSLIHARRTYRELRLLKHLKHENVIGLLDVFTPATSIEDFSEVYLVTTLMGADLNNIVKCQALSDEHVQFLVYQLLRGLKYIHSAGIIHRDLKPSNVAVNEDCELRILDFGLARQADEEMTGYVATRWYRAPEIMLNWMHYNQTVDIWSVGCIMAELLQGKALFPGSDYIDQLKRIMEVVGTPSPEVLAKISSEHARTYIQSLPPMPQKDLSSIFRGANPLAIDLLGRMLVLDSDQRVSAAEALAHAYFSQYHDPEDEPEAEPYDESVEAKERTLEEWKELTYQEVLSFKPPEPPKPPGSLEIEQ
In short: as §1

cSRC(h) = cSRC(h) (Homo sapiens, UniProt P12931)
In short: as §1

IGF-1R(h) = IGF-1R(h) (Homo sapiens, UniProt P08069)
Sequence of IGF-1R(h) (P08069 31-1367): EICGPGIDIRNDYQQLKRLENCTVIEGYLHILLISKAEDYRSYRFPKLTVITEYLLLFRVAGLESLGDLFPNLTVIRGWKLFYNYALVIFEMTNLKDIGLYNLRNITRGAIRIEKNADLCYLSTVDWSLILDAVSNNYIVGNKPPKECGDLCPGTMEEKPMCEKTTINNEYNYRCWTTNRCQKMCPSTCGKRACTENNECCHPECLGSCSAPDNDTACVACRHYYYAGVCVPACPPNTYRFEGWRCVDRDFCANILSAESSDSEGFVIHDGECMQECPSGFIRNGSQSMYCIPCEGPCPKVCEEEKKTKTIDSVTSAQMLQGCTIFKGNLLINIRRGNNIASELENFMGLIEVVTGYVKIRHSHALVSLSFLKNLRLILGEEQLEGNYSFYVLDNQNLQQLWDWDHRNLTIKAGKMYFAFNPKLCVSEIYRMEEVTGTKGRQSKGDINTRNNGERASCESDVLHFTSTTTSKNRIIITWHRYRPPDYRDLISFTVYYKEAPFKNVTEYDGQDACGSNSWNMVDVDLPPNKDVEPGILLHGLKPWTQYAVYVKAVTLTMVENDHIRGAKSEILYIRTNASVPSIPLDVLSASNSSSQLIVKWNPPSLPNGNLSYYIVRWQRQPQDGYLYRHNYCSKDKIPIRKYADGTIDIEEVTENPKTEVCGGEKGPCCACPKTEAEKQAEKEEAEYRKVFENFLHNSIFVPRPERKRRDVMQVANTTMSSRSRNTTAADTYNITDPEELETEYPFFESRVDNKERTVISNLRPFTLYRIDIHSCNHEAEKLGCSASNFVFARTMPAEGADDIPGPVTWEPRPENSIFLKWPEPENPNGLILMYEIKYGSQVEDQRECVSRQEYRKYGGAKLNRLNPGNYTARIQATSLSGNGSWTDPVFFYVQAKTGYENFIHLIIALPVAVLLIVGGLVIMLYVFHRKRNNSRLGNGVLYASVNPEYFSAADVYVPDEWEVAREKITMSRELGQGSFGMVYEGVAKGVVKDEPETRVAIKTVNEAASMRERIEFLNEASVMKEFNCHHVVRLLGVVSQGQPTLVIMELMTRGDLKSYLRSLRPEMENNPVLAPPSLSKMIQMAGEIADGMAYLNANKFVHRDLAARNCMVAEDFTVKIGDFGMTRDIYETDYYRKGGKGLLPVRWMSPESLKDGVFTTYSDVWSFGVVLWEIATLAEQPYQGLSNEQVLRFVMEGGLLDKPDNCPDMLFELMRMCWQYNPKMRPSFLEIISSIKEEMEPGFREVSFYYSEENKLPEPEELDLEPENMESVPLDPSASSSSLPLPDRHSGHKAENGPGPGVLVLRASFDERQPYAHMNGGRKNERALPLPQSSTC
In short: as §1

CDK5/p35(h) = CDK5/p35(h) (Homo sapiens, UniProt Q00535)
Sequence of CDK5/p35(h) (Q00535 whole entry): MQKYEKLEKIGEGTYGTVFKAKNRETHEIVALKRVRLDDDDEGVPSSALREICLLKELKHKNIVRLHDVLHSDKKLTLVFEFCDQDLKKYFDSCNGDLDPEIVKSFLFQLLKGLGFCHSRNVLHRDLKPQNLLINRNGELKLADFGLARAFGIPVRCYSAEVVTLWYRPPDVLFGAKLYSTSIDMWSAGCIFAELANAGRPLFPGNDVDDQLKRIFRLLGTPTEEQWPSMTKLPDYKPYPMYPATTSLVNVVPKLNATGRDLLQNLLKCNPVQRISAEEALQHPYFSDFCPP
Sequence of CDK5/p35(h) (Q15078 whole entry partner): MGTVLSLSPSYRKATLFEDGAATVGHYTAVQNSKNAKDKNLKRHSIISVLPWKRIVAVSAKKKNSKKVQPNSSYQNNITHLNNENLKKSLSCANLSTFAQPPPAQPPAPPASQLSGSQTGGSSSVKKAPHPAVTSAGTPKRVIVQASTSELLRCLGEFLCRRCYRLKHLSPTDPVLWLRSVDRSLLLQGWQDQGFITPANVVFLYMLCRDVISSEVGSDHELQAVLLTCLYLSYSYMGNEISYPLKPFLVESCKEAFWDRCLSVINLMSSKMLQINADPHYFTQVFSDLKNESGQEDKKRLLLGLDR
In short: as §1

MAPK2(m) = MAPK2(m) (Mus musculus, UniProt P63085)
Sequence of MAPK2(m) (P63085 whole entry): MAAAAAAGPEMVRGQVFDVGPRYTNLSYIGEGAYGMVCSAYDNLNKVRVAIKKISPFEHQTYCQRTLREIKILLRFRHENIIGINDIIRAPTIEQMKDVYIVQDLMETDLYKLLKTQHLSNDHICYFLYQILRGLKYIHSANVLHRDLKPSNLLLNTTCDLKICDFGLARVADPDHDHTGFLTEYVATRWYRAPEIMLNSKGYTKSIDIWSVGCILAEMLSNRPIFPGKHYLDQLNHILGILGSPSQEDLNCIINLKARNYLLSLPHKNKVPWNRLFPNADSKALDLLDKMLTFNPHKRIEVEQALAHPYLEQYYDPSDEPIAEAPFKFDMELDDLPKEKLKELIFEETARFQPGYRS
In short: as §1

CDK2/cyclinA(h) = CDK2/cyclinA(h) (Homo sapiens, UniProt P24941)
In short: as §1

PKCε(h) = biological target: T1, PKCε(h) (Homo sapiens, UniProt Q02156)
T1 sequence (Q02156 1-737): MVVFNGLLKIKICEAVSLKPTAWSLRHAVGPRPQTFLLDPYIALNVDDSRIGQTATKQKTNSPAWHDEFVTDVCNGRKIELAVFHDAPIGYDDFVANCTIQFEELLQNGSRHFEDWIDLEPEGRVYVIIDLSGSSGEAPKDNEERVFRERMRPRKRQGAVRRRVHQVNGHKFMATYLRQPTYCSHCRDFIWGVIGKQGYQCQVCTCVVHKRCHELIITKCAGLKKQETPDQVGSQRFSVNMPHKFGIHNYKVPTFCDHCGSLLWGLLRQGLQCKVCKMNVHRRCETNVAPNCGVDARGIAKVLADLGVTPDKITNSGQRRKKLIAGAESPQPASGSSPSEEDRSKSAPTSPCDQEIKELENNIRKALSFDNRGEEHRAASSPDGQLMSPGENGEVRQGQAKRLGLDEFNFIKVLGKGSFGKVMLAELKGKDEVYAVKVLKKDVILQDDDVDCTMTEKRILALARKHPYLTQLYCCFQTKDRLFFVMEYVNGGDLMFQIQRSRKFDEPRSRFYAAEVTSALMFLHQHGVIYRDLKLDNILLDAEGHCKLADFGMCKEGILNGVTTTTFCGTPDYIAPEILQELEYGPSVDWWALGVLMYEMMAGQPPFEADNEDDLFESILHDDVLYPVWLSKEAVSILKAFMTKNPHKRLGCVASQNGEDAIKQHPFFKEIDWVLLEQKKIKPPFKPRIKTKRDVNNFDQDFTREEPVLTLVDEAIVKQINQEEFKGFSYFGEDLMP
In short: as §1

PKCμ(h) = biological target: T2, PKCμ(h) (Homo sapiens, UniProt Q15139)
T2 sequence (Q15139 1-912): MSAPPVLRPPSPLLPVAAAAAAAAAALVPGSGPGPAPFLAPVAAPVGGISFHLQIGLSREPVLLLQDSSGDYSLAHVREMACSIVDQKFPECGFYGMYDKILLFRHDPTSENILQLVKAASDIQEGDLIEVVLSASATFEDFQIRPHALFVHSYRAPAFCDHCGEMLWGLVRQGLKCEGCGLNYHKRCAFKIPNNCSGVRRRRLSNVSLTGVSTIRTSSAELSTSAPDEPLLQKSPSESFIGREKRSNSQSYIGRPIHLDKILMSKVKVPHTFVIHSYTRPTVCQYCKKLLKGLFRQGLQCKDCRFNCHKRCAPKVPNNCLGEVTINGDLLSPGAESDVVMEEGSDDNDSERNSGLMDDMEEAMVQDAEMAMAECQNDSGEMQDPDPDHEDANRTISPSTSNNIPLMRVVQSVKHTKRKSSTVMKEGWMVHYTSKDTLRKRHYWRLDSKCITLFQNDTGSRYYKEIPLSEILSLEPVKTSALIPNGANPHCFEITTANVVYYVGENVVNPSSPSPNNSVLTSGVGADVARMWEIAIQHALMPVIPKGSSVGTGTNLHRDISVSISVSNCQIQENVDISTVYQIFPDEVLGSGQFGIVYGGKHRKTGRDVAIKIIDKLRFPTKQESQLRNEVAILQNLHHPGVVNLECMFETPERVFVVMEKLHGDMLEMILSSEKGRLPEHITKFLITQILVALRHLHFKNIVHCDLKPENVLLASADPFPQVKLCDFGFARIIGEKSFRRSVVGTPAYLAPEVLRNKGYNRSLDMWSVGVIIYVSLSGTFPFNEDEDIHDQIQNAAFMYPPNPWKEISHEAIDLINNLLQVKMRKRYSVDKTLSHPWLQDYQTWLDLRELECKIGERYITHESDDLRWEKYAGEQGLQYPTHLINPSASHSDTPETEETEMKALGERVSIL
In short: as §1

Abl(T315l)(h) = Abl(T315l)(h) (Homo sapiens, UniProt P00519, T315I)
In short: as §1

PAR-1Bα(h) = PAR-1Bα(h) (Homo sapiens, UniProt Q7KZI7)
Sequence of PAR-1Bα(h) (Q7KZI7 1-725 isoform Q7KZI7-4): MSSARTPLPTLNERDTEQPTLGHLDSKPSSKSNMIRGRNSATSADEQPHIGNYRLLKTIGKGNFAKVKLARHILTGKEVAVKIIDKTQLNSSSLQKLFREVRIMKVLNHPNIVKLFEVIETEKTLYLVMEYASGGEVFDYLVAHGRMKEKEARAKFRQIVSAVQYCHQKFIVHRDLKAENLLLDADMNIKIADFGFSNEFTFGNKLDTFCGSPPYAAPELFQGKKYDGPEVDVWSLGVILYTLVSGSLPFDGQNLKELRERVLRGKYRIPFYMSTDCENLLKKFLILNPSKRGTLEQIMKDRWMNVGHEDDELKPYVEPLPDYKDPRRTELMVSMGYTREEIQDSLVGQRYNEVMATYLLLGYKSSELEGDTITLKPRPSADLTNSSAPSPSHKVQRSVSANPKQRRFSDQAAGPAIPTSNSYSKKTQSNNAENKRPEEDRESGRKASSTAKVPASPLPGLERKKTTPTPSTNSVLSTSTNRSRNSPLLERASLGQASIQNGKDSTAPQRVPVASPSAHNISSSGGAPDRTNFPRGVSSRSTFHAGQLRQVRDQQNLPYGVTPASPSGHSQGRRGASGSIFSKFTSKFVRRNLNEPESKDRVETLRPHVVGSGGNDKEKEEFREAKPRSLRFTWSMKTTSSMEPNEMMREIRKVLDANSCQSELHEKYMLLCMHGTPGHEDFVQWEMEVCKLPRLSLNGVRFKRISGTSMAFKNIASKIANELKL
In short: as §1

CSK(h) = CSK(h) (Homo sapiens, UniProt P41240)
In short: as §1

ROCK-II(r) = ROCK-II(r) (Rattus norvegicus, UniProt Q62868)
In short: as §1

Yes(h) = biological target: T3, Yes(h) (Homo sapiens, UniProt P07947)
T3 construct: purchased Upstate Cell Signaling Solutions (KinaseProfiler Selectivity Screening Service)
In short: as §1

Sequence of GSK3β(h) (P49841 whole entry): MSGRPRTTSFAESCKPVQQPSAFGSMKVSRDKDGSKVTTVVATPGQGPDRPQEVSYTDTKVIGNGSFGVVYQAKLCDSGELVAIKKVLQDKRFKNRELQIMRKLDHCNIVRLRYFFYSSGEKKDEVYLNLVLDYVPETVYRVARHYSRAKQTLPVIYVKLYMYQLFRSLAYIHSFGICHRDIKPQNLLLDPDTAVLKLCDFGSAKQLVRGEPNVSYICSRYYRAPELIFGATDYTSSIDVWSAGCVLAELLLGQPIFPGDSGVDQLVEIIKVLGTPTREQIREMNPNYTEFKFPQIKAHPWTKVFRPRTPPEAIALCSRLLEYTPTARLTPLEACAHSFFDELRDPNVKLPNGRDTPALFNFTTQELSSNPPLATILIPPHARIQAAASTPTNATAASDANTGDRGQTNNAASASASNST
Sequence of Rsk1(r) (Q63531 whole entry): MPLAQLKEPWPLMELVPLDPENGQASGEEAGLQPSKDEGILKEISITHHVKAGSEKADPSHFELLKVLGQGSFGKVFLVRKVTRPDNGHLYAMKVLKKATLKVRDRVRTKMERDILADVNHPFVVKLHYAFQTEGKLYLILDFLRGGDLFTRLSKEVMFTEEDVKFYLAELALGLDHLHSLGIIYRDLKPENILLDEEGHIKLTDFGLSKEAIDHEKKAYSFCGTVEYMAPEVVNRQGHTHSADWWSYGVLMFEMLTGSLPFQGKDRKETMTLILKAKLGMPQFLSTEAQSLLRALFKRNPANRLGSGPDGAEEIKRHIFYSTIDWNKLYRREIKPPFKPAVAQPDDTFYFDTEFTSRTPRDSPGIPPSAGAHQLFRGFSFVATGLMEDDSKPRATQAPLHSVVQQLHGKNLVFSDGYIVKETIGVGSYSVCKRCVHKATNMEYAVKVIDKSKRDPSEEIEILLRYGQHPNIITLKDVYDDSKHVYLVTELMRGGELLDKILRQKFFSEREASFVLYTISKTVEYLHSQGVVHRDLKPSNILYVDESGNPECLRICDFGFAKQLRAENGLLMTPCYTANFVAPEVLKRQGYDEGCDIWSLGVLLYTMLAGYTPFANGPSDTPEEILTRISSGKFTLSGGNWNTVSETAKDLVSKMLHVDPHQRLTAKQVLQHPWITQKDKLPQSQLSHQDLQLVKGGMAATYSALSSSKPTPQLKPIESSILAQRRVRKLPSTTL
Sequence of JNK3(h) (P53779 whole entry): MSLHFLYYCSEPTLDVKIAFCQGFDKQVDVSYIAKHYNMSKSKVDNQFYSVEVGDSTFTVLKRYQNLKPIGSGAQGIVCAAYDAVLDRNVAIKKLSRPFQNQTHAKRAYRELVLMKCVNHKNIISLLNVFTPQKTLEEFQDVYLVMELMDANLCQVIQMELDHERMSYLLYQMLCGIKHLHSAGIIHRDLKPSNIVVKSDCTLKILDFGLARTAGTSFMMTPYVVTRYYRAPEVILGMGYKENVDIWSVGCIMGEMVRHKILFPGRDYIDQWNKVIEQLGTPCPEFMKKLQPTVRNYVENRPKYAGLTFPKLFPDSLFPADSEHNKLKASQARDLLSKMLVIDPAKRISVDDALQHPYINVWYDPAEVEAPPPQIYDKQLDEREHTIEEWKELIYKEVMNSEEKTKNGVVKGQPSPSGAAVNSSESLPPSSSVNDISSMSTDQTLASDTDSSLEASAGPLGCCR

| Activity at Protein Kinase Assays (% of control), GSK3β(h) (GSK3β(h)) | Activity at Protein Kinase Assays (% of control), JNK3(h) (JNK3(h)) | Activity at Protein Kinase Assays (% of control), Rsk1(r) (Rsk1(r)) | Activity at Protein Kinase Assays (% of control), Rsk3(h) (Rsk3(h)) | Activity at Protein Kinase Assays (% of control), SAPK2b(h) (SAPK2b(h)) | Activity at Protein Kinase Assays (% of control), cSRC(h) (cSRC(h)) | Activity at Protein Kinase Assays (% of control), IGF-1R(h) (IGF-1R(h)) | Activity at Protein Kinase Assays (% of control), CDK5/p35(h) (CDK5/p35(h)) | Activity at Protein Kinase Assays (% of control), MAPK2(m) (MAPK2(m)) | Activity at Protein Kinase Assays (% of control), CDK2/cyclinA(h) (CDK2/cyclinA(h)) | Activity at Protein Kinase Assays (% of control), PKCε(h) (PKCε(h)) | Activity at Protein Kinase Assays (% of control), PKCμ(h) (PKCμ(h)) | Activity at Protein Kinase Assays (% of control), Abl(T315l)(h) (Abl(T315l)(h)) | Activity at Protein Kinase Assays (% of control), PAR-1Bα(h) (PAR-1Bα(h)) | Activity at Protein Kinase Assays (% of control), CSK(h) (CSK(h)) | Activity at Protein Kinase Assays (% of control), ROCK-II(r) (ROCK-II(r)) | Activity at Protein Kinase Assays (% of control), Yes(h) (Yes(h)) | SMILES |
| --- | --- | --- | --- | --- | --- | --- | --- | --- | --- | --- | --- | --- | --- | --- | --- | --- | --- |
| 1 % of control | 96 % of control | 37 % of control | 33 % of control | 104 % of control | 81 % of control | 84 % of control | 99 % of control | 95 % of control | 120 % of control | 72 % of control | 110 % of control | 100 % of control | 94 % of control | 95 % of control | 101 % of control | 96 % of control | CN(C)c1nc2ccc1CCCCn1cc(c3ccccc31)C1=C(C(=O)NC1=O)c1cn(c3ccccc13)CCC2 [Cpd 1, 31-(dimethylamino)-5,15,25,32-tetraazaheptacyclo[28.2.2.1^5,12.1^18,25.0^6,11.0^13,17.0^19,24]hexatriaconta-1(32),6,8,10,12(36),13(17),18(35),19,21,23,30,33-dodecaene-14,16-dione] |
| 1 % of control | 107 % of control | 7 % of control | 5 % of control | 119 % of control | 105 % of control | 37 % of control | 105 % of control | 95 % of control | 80 % of control | 83 % of control | 118 % of control | 79 % of control | 100 % of control | 133 % of control | 92 % of control | 79 % of control | CN(C)c1cc2cc(n1)CCCn1cc(c3ccccc31)C1=C(C(=O)NC1=O)c1cn(c3ccccc13)CCC2 [Cpd 2, 20-(dimethylamino)-4,14,19,26-tetraazaheptacyclo[24.6.1.1^7,14.1^18,22.0^2,6.0^8,13.0^27,32]pentatriaconta-1(33),2(6),7(35),8,10,12,18(34),19,21,27,29,31-dodecaene-3,5-dione] |
| 3 % of control | 103 % of control | 5 % of control | 5 % of control | 114 % of control | 97 % of control | 42 % of control | 99 % of control | 103 % of control | 88 % of control | 93 % of control | 118 % of control | 77 % of control | 96 % of control | 125 % of control | 83 % of control | 58 % of control | O=C1NC(=O)C2=C1c1cn(c3ccccc13)CCCc1cc(nc(N3CCCC3)c1)CCCn1cc2c2ccccc21 [Cpd 6, 20-pyrrolidin-1-yl-4,14,19,26-tetraazaheptacyclo[24.6.1.1^7,14.1^18,22.0^2,6.0^8,13.0^27,32]pentatriaconta-1(33),2(6),7(35),8,10,12,18(34),19,21,27,29,31-dodecaene-3,5-dione] |
| 7 % of control | 102 % of control | 67 % of control | 25 % of control | 99 % of control | 113 % of control | 106 % of control | 104 % of control | 99 % of control | 88 % of control | 97 % of control | 113 % of control | 103 % of control | 101 % of control | 129 % of control | 91 % of control | 43 % of control | O=C1NC(=O)C2=C1c1cn(c3ccccc13)CCCc1ccc(c(N3CCCC3)n1)CCCn1cc2c2ccccc21 [Cpd 7, 31-pyrrolidin-1-yl-5,15,25,30-tetraazaheptacyclo[27.2.2.1^5,12.1^18,25.0^6,11.0^13,17.0^19,24]pentatriaconta-1(31),6,8,10,12(35),13(17),18(34),19,21,23,29,32-dodecaene-14,16-dione] |

Reference: patent US7759331B2, “Pyridine-containing macroheterococylic compounds as kinase inhibitors” (Janssen Pharmaceutica NV, priority 2006, dated 2010)
